Measurements: ChEMBL document CHEMBL5500371, “Arginine and tryptophan-rich dendritic antimicrobial peptides that disrupt membranes for bacterial infection in vivo” (Eur J Med Chem, 2024)
Converted amounts (≈) assume the structure as drawn. Where a SMILES comes first, the peptide text is derived from it. Side-chain parts run from the residue outwards.

Columns and labels:
[1] = system: Escherichia coli; assay: Antibacterial activity against Escherichia coli ATCC 25922 assessed as inhibition of bacterial growth incubated for 20 hrs by broth microdilution method; type: functional
[2] = system: Staphylococcus aureus; assay: Antibacterial activity against Staphylococcus aureus ATCC 25923 assessed as inhibition of bacterial growth incubated for 20 hrs by broth microdilution method; type: functional
[3] = system: Klebsiella pneumoniae; assay: Antibacterial activity against Klebsiella pneumoniae ATCC 700603 assessed as inhibition of bacterial growth incubated for 20 hrs by broth microdilution method; type: functional
[4] = system: Erythrocyte; assay: Hemolytic activity in mouse erythrocytes assessed as 10% hemolysis incubated for 1 hr by absorbance based analysis; type: toxicity, cell-based
[5] = system: Pseudomonas aeruginosa; assay: Antibacterial activity against Pseudomonas aeruginosa ATCC 27853 assessed as inhibition of bacterial growth incubated for 20 hrs by broth microdilution method; type: functional
[6] = system: Acinetobacter baumannii; assay: Antibacterial activity against Acinetobacter baumannii ATCC 19606 assessed as inhibition of bacterial growth incubated for 20 hrs by broth microdilution method; type: functional
[7] = system: Bacillus subtilis; assay: Antibacterial activity against Bacillus subtilis ATCC 23857 assessed as inhibition of bacterial growth incubated for 20 hrs by broth microdilution method; type: functional
[8] = Cytotoxicity against HEK293T cells assessed as cell death measured after 1 hr by resazurin dye based analysis; type: toxicity, HEK-293T; details: human, HEK293T cells

Molecule | MIC [1] [µM] | MIC [2] [µM] | MIC [3] [µM] | MIC [5] [µM] | MIC [6] [µM] | MIC [7] [µM] | MHC10 [4] [µM] | CC50 at 1 h [8] [µM]
N=C(N)NCCC[C@H](NC(=O)[C@H](CCCNC(=N)N)NC(=O)[C@H](CCCNC(=N)N)NC(=O)[C@H](CCCCNC(=O)[C@@H](N)Cc1c[nH]c2ccccc12)NC(=O)[C@@H](N)Cc1c[nH]c2ccccc12)C(N)=O (H-WK(Trp)RRR-NH2) | > 128 | > 128 | > 128 | > 128 | > 128 | > 128 | > 256 | > 128
N=C(N)NCCC[C@H](NC(=O)[C@H](CCCNC(=N)N)NC(=O)[C@H](CCCNC(=N)N)NC(=O)[C@H](CCCNC(=N)N)NC(=O)[C@H](CCCNC(=N)N)NC(=O)[C@H](CCCCNC(=O)[C@H](Cc1c[nH]c2ccccc12)NC(=O)[C@@H](N)Cc1c[nH]c2ccccc12)NC(=O)[C@H](Cc1c[nH]c2ccccc12)NC(=O)[C@@H](N)Cc1c[nH]c2ccccc12)C(N)=O (H-WWK([Trp-Trp])RRRRR-NH2) | 8 (≈ 13.4 µg/mL) | 8 (≈ 13.4 µg/mL) | 64 (≈ 107 µg/mL) | 32 (≈ 53.5 µg/mL) | 32 (≈ 53.5 µg/mL) | 8 (≈ 13.4 µg/mL) | > 256 | > 128
N=C(N)NCCC[C@H](NC(=O)[C@H](CCCNC(=N)N)NC(=O)[C@H](CCCNC(=N)N)NC(=O)[C@H](CCCNC(=N)N)NC(=O)[C@H](CCCNC(=N)N)NC(=O)[C@H](CCCCNC(=O)[C@H](Cc1c[nH]c2ccccc12)NC(=O)[C@H](Cc1c[nH]c2ccccc12)NC(=O)[C@@H](N)Cc1c[nH]c2ccccc12)NC(=O)[C@H](Cc1c[nH]c2ccccc12)NC(=O)[C@H](Cc1c[nH]c2ccccc12)NC(=O)[C@@H](N)Cc1c[nH]c2ccccc12)C(N)=O (H-WWWK([Trp-Trp-Trp])RRRRR-NH2) | 16 (≈ 32.7 µg/mL) | 8 (≈ 16.3 µg/mL) | 32 (≈ 65.4 µg/mL) | 32 (≈ 65.4 µg/mL) | 32 (≈ 65.4 µg/mL) | 8 (≈ 16.3 µg/mL) | 22.73 | 48.2
N=C(N)NCCC[C@H](NC(=O)[C@H](CCCNC(=N)N)NC(=O)[C@H](CCCNC(=N)N)NC(=O)[C@H](CCCNC(=N)N)NC(=O)[C@H](CCCNC(=N)N)NC(=O)[C@H](CCCNC(=N)N)NC(=O)[C@H](CCCCNC(=O)[C@H](Cc1c[nH]c2ccccc12)NC(=O)[C@H](Cc1c[nH]c2ccccc12)NC(=O)[C@@H](N)Cc1c[nH]c2ccccc12)NC(=O)[C@H](Cc1c[nH]c2ccccc12)NC(=O)[C@H](Cc1c[nH]c2ccccc12)NC(=O)[C@@H](N)Cc1c[nH]c2ccccc12)C(N)=O (H-WWWK([Trp-Trp-Trp])RRRRRR-NH2) | 32 (≈ 70.4 µg/mL) | 16 (≈ 35.2 µg/mL) | 32 (≈ 70.4 µg/mL) | 16 (≈ 35.2 µg/mL) | 32 (≈ 70.4 µg/mL) | 8 (≈ 17.6 µg/mL) | 17.61 | 41.7
H-RRKWWW-NH2 | 64 | 64 | > 128 | 128 | 128 | 16 | > 256 | > 128

More lines, main results first:

MIC [1] [µM] | MIC [2] [µM] | MIC [3] [µM] | MIC [5] [µM] | MIC [6] [µM] | MIC [7] [µM] | Molecule | MHC10 [4] [µM] | CC50 at 1 h [8] [µM]
> 128 | 16 (≈ 21.7 µg/mL) | > 128 | > 128 | 128 (≈ 174 µg/mL) | 16 (≈ 21.7 µg/mL) | N=C(N)NCCC[C@H](NC(=O)[C@H](CCCNC(=N)N)NC(=O)[C@H](CCCNC(=N)N)NC(=O)[C@H](CCCCNC(=O)[C@H](Cc1c[nH]c2ccccc12)NC(=O)[C@@H](N)Cc1c[nH]c2ccccc12)NC(=O)[C@H](Cc1c[nH]c2ccccc12)NC(=O)[C@@H](N)Cc1c[nH]c2ccccc12)C(N)=O (H-WWK([Trp-Trp])RRR-NH2) | > 256 | > 128
> 128 | > 128 | > 128 | > 128 | > 128 | > 128 | N=C(N)NCCC[C@H](NC(=O)[C@H](CCCCN)NC(=O)[C@H](Cc1c[nH]c2ccccc12)NC(=O)[C@@H](N)Cc1c[nH]c2ccccc12)C(N)=O (H-WWKR-NH2) | > 256 | > 128
> 128 | > 128 | > 128 | > 128 | > 128 | 64 | H-RRKWW-NH2 | > 256 | > 128
